Measured values from ChEMBL document CHEMBL1155668, “A new depsipeptide from the sacoglossan mollusk Elysia ornata and the green alga Bryopsis species” (J Nat Prod, 2000).
Activity calls are given as the source filed them.

Assays:
Type in all cases: functional, cell-based
HT-29 = test: Growth inhibition of human HT29 cells at 10 ug/mL
P388 = test: Growth inhibition of mouse P388 cells at 10 ug/mL
A549 = test: Growth inhibition of human A549 cells at 10 ug/mL
MEL28 = test: Growth inhibition of human MEL28 cells at 10 ug/mL

Measured: Activity

CC[C@H](C)[C@@H]1NC(=O)[C@H]([C@@H](C)O)NC(=O)[C@@H](Cc2c[nH]c3ccccc23)NC(=O)[C@@H](Cc2ccc(O)cc2)NC(=O)[C@@H](NC(=O)CNC(=O)CCCC(C)C)[C@@H](C)OC(=O)[C@H](C(C)C)NC1=O
inactive: all assays above
